The values that follow come from ChEMBL document CHEMBL2157913, “Synthesis and evaluation of apoptosis induction of thienopyrimidine compounds on KRAS and BRAF mutated colorectal cancer cell lines” (Bioorg Med Chem, 2012).

Calls of active or inactive are those of the source. The rule behind the calls is not given here.

Experiment [1] deals with HeLa. The experiment is described as follows: Induction of apoptosis in human HeLa cells expressing wild type KRAS and BRAF assessed as depolarization of mitochondrial membrane after 24 hrs by flow cytometry. It is filed as functional, cell-based.
Experiment [2] relates to HCT-116. Kind of experiment: Induction of apoptosis in human HCT116 cells expressing KRAS mutant assessed as depolarization of mitochondrial membrane after 24 hrs by flow cytometry. Format: functional, cell-based. Background: In flow cytometry, cells or beads pass a laser one at a time.
For experiment [3], the system named is HT-29. Kind of experiment: Induction of apoptosis in human HT-29 cells expressing BRAF mutant assessed as depolarization of mitochondrial membrane after 24 hrs by flow cytometry. Format: functional, cell-based.
Experiment [4] concerns HT-29. Kind of experiment: Induction of apoptosis in human HT-29 cells expressing BRAF mutant assessed as cell death at 200 uM after 10 mins by flow cytometry. It is filed as functional, cell-based.
The test system of experiment [5] is HT-29. Kind of experiment: Induction of apoptosis in human HT-29 cells expressing BRAF mutant assessed as activation of caspase-3 at 200 uM after 10 mins by flow cytometry relative to control. It is filed as functional.
Where [6] appears, read: Homo sapiens, HeLa, 24 h, read-out: IC50.
Setting [7] is: Homo sapiens, HCT-116, 24 h, read-out: IC50.
[8] abbreviates: Homo sapiens, HT-29, 24 h, read-out: IC50.

On to `Cc1ccccc1Nc1ncnc2sc3ccccc3c12`, for which the IC50 (usually the concentration at which inhibition is half-maximal) is 129 µM in experiment [1] (setting [6]), 101 µM in experiment [2] (setting [7]) and 120 µM in experiment [3] (setting [8]). Moreover, the outcome in experiment [4] was Active. In addition, the “fold change (FC)” value in experiment [5] is on record as 10.
Take `c1ccc(CNc2ncnc3c2sc2ccccc23)cc1`: the IC50 in experiment [1] (setting [6]) was 105 µM; in experiment [2] (hct-116), “Not Active”; in experiment [3] (ht-29), “Not Active”.
Consider `Cc1ccccc1CNc1ncnc2c1sc1ccccc12`, for which the IC50 result in experiment [1] (hela), in experiment [2] (hct-116) and in experiment [3] (ht-29) was “Not Active” throughout.
For the molecule `COc1ccccc1Nc1ncnc2sc3ccccc3c12`, the IC50 in experiment [1] (setting [6]) was more than 130 µM; in experiment [2] (hct-116), “Not Active”; in experiment [3] (ht-29), “Not Active”. For the same molecule, in experiment [5], the outcome was Active.
Turning to `Cc1ccccc1Nc1ncnc2c1sc1ccccc12`, the IC50 in experiment [1] (setting [6]) stood at 77.7 µM; in experiment [2] (setting [7]) it was 121 µM; in experiment [3] (setting [8]) it was 127 µM.
Regarding `CN(C)c1ncnc2sc3ccccc3c12`, the results for the IC50 in experiment [1] (setting [6]), in experiment [2] (hct-116) and in experiment [3] (ht-29) were 102 µM, “Not Active” and “Not Active”, respectively.
Take `COc1ccc(CNc2ncnc3c2sc2ccccc23)cc1`: the IC50 in experiment [1] (setting [6]) is 118 µM; in experiment [2] (hct-116), “Not Active”; in experiment [3] (ht-29) it was “Not Active”.
As to `COc1ccc(Nc2ncnc3sc4ccccc4c23)cc1`, the IC50 stood at 109 µM in experiment [1] (setting [6]), 92 µM in experiment [2] (setting [7]) and 117 µM in experiment [3] (setting [8]). In experiment [4], the outcome was Active. For the same molecule, the “fold change (FC)” value in experiment [5] turned out to be 10.
For the molecule `c1ccc(CNc2ncnc3sc4ccccc4c23)cc1`, the IC50 in experiment [1] (setting [6]) is 113 µM; in experiment [2] (setting [7]), more than 130 µM; in experiment [3] (setting [8]), 126 µM.
For the molecule `c1ccc(Nc2ncnc3c2sc2ccccc23)cc1`, the IC50 result in experiment [1] (hela), in experiment [2] (hct-116) and in experiment [3] (ht-29) was “Not Active” throughout.
As to `COc1ccccc1CNc1ncnc2c1sc1ccccc12`, the IC50 in experiment [1] (setting [6]) is 129 µM; in experiment [2] (hct-116), “Not Active”; in experiment [3] (ht-29), “Not Active”.
`Cc1ccccc1CNc1ncnc2sc3ccccc3c12`: the IC50 was more than 130 µM in experiment [1] (setting [6]), “Not Active” in experiment [2] (hct-116) and “Not Active” in experiment [3] (ht-29).
Regarding `c1ccc(Nc2ncnc3sc4ccccc4c23)cc1`, the IC50 was more than 130 µM in experiment [1] (setting [6]), “Not Active” in experiment [2] (hct-116) and “Not Active” in experiment [3] (ht-29). Besides, in experiment [5], the result was Active.
